According to patent US20040006070A1, “Intraspinal continuous infusion of midazolam hydrochloride for the treatment of pain” (priority 2002, published 2004):
Structures can show the parent of a compound that is named as a salt.

Key:
[1] = system: neuropathic pain model in the sheep; test: Neuropathic pain model in sheep, mechanical stimulus device; assay type: in vivo; conditions: for Mechanical Stimulus device: sheep Rowdy #819
Excerpt: The neuropathic pain model in the sheep is created by placing four tight ligatures around the median, radial, or ulnar nerve (or a combination thereof) with 0-chromic gut suture. This method produces a chronic painful peripheral mononeuropathy which may be related to those conditions seen in humans with causalgia and reflex sympathetic dystrophy. To date, the onset of neuropathic pain has occurred 1 to 9 days postoperatively, as evidenced by the display of painful behavior such as hyperalgesia, not bearing weight or holding the operated leg off the ground. The duration of the painful behavior lasted 16 to 62 days. […] It has been difficult to identify a segment of the median nerve that is consistently appropriate to achieve the neuropathic pain behavior. The inventors are continuing to test different segments of the median nerve and other mixed sensory/motor nerves to consistently produce this behavior. Of the five animals that developed neuropathic pain, three were treated with intrathecal morphine or midazolam as single agents.
In the sheep with neuropathic pain treated by midazolam alone, intrathecal administration of midazolam was initiated at 3 to 5 mg/day and the dose was escalated to up to 15 mg/day. […] This analgesia was documented using a mechanical stimulus device and/or behavior monitoring. The mechanical stimulus device measures pressure applied to a blunt pin against the foreleg. The pressure at which the animal lifts its leg in response to the painful stimulus is documented. In the sheep monitored by this device, administration of intrathecal midazolam allowed endurance of up to 18 Newtons of pressure (cut off to prevent tissue damage was set at 19.99 N) compared to the baseline (pretreatment) pressure endured of 9.59 N.
A mechanical stimulus device as described in Example 6, and/or behavior monitoring as described in Example 5 is used to test analgesic effect in the neuropathic pain model. To compare the effects of midazolam using the mechanical stimulus device, the data were accumulated over the testing period, and all response latencies were expressed as percentage of the maximum possible effect (MPE) where: [formula]
This test will be conducted prior to initiation of midazolam infusion and again on days 1, 3, 7, 15, 22, 29, 36, 43 during infusion. The mechanical stimulus device has been developed and validated (Nolan et al. 1987; Kyles et al., 1995) for pain testing in the sheep model.

[2] = 1-5 mg/day, prior art; cited from earlier work
[3] = Toxicity of continuous intrathecal infusion in acute pain sheep: clinical symptoms, necropsy, histology; assay type: in vivo
Description: The inventors have completed a toxicity and efficacy study of intrathecal midazolam hydrochloride in 15 sheep instrumented with Medtronic SynchroMed® infusion systems. The surgical procedure and the hardware used in these animals was analogous to that utilized in humans. The first sheep was tested for toxicity only (3 mg/day), and all subsequent animals tested for both toxicity and analgesic activity.
Open-label (known dose) trial: A trial with known midazolam doses was performed in the first 7 sheep. Animals were administered 3 mg/day (N=1), 5 mg/day (N=1), 10 mg/day (N=1), and 15 mg/day (N=4) for 43 days. These doses were chosen based upon previous intrathecal bolus dose studies in rats and humans, with conversion of from species to species based on cerebral spinal fluid (CSF) production rate and total CSF volume. Analgesic activity was assessed using a mechanical stimulus device which produces a stimulus of acute pain by application of force via a blunt needle applied to the shaved front foreleg of the animal. Force is applied with increasing pressure until the animal lifts its leg in response to the painful stimulus. To evaluate the analgesic effect of midazolam, response latencies were expressed as a percentage of the maximum possible effect, % MPE. The response latency is defined as follows: [formula]
On day 43 after venous blood samples were taken, animals were euthanized (Beuthanasia 1 ml/4.5 kg IV bolus injection). CSF samples were obtained for analysis (1-2 ml drawn from L-7/S-1 after a laminectomy was performed to expose the dura) of glucose, total protein, and cell differential.

[4] = double blinded sheep Chicken Hawk #87, 5 mg/day, 43 days
[5] = double blinded sheep Elmer Fudd #437, 5 mg/day, 43 days
[6] = double blinded sheep Leghorn II #815, 15 mg/day, 43 days
[7] = double blinded sheep Petunia #439, 15 mg/day, 43 days
[8] = double blinded sheep Porky #402, 5 mg/day, 43 days
[9] = double blinded sheep Roadrunner #84, 15 mg/day, 43 days
[10] = open label sheep Dot #85, 15 mg/day, 43 days
[11] = open label sheep Wacko #83, 15 mg/day, 43 days
[12] = open label sheep Yacko #91, 15 mg/day, 43 days

**Q.** Which “pressure endured (mechanical stimulus device)” value ([1]; Sheep #819, cut off 19.99 N, baseline (pretreatment) 9.59 N) does the source give for Cc1ncc2n1-c1ccc(Cl)cc1C(c1ccccc1F)=NC2 [Midazolam, midazolam hydrochloride] here?
**A.** up to 18 Newtons

**Q.** And the analgesia ([1]; neuropathic pain sheep, midazolam alone, 3 to 5 mg/day escalated up to 15 mg/day intrathecal)?
**A.** significant analgesia

**Q.** What about the “Mechanical Stimulus device” value ([1]; 10 mg) of the same molecule?
**A.** 13.7N

**Q.** What about the “Mechanical Stimulus device” value ([1]; 15 mg) of the same molecule?
**A.** 7.0N

**Q.** And the toxicities reported [2]?
**A.** Sedation and somnolence

**Q.** And the inflammatory lesions ([3]; any sheep receiving midazolam alone in the acute pain sheep study)?
**A.** no significant inflammatory lesions were observed

**Q.** What about the “behavioral, toxicological, or histopathologic changes related to the infusion” value ([3]; closed label sheep, continuous infusion 5 or 15 mg/day) of the same molecule?
**A.** did not produce any behavioral, toxicological, or histopathologic changes

**Q.** What about the Histology [3, 4] of the same molecule?
**A.** mild catheter reaction

**Q.** What about the Necropsy [3, 4] of the same molecule?
**A.** no gross lesions noted

**Q.** And the Histology [3, 5]?
**A.** mild catheter reaction

**Q.** What about the Necropsy [3, 5] of the same molecule?
**A.** no gross lesions noted

**Q.** What about the Histology [3, 6] of the same molecule?
**A.** mild catheter reaction

**Q.** What about the Necropsy [3, 6] of the same molecule?
**A.** No obvious lesions where detected

**Q.** And the Histology [3, 7]?
**A.** mild catheter reaction

**Q.** What about the Necropsy [3, 7] of the same molecule?
**A.** no gross lesions noted

**Q.** What about the Histology [3, 8] of the same molecule?
**A.** mild catheter reaction

**Q.** And the Necropsy [3, 8]?
**A.** no gross lesions noted

**Q.** What about the Histology [3, 9] of the same molecule?
**A.** mild catheter reaction

**Q.** And the Necropsy [3, 9]?
**A.** no gross lesions noted

**Q.** What about the clinical symptoms ([3]; open label sheep #457 Tazz, 15 mg/day, 43 days) of the same molecule?
**A.** No clinical symptoms

**Q.** And the clinical symptoms ([3]; open label sheep #498 Toad, 10 mg/day, 43 days)?
**A.** No clinical symptoms

**Q.** And the clinical symptoms ([3]; open label sheep #518 Sandy, 5 mg/day, 43 days)?
**A.** No clinical symptoms

**Q.** What about the Histology [3, 10] of the same molecule?
**A.** mild catheter reaction

**Q.** And the Necropsy [3, 10]?
**A.** no gross lesions noted

**Q.** And the Histology [3, 11]?
**A.** mild catheter reaction

**Q.** What about the Necropsy [3, 11] of the same molecule?
**A.** no gross lesions noted

**Q.** What about the Histology [3, 12] of the same molecule?
**A.** mild catheter reaction

**Q.** And the Necropsy [3, 12]?
**A.** no gross lesions noted

**Q.** And the “behavioral, toxicological, or histopathologic changes related to the infusion” value ([3]; open label sheep, continuous infusion 3-15 mg/day, 43 days)?
**A.** did not produce any behavioral, toxicological, or histopathologic changes
